Earlier results as cited in patent US20240010628A1, “METHODS OF MANUFACTURE OF R-MDMA” (Mind Medicine, Inc., priority 2022, published 2024).

Tests used:
[1] = in vivo
[2] = system: parkinsonian animal model
5-HT2A receptors = 5-HT2A receptors (Homo sapiens, UniProt P28223)
DAT = DAT (Homo sapiens, UniProt Q01959)
SERT = SERT (Homo sapiens, UniProt P31645)
Chain of SERT (P31645 whole entry, species assumed): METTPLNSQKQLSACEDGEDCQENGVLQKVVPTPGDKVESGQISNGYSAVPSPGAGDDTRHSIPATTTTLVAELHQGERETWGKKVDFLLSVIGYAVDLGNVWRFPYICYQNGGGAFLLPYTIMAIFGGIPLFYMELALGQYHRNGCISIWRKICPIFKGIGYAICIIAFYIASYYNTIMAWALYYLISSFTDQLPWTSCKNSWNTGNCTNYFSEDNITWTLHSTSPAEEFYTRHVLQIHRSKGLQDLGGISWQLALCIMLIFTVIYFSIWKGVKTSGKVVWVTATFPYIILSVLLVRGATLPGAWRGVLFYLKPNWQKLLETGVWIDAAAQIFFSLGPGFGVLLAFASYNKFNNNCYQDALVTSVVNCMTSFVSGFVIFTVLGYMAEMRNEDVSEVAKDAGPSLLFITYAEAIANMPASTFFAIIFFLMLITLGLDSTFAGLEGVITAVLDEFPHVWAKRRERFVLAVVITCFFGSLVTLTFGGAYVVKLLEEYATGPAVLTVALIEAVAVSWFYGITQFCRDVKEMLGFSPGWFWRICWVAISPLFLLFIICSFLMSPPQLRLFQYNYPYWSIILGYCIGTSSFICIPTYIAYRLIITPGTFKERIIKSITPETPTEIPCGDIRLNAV

Chain of DAT (Q01959 whole entry, species assumed): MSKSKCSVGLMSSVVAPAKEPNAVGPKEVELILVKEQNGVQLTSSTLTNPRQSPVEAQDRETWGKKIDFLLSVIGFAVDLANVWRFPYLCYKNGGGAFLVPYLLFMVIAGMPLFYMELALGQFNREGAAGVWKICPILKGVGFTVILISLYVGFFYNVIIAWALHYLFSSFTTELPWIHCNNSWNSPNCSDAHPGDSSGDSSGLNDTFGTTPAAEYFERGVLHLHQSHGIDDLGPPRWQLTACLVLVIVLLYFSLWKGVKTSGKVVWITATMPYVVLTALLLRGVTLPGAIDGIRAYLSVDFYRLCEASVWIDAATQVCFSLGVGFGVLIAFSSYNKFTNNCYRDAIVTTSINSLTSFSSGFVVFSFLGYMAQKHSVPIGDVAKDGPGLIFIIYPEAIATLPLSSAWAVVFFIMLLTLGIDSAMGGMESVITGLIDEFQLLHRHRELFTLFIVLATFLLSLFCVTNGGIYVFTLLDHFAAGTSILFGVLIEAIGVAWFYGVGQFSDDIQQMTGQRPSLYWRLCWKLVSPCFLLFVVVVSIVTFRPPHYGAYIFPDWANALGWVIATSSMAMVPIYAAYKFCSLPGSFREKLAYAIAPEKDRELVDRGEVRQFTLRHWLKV
Chain of 5-HT2A receptors (P28223 whole entry): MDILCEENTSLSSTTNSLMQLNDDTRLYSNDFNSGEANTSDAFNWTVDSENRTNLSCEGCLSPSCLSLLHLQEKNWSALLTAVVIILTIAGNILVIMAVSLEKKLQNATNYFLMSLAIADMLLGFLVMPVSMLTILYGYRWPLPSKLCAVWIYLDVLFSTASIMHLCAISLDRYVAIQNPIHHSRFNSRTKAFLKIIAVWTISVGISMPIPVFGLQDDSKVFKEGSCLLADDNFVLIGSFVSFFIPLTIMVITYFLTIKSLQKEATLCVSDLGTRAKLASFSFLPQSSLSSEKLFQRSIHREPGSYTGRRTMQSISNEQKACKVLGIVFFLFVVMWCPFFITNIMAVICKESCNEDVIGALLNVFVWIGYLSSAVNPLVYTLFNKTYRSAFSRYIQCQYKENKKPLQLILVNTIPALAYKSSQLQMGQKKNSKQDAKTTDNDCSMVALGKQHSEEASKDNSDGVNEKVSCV

## CN[C@H](C)Cc1ccc2c(c1)OCO2 [R-MDMA, (R)-1-(benzo[d][1,3]dioxol-5-yl)-N-methylpropan-2-amine]
dopamine
  efficacy as a releaser of dopamine: low efficacy
[1]
  hyperthermia: does not produce hyperthermia
[2]
  duration of good ON-time: increased
  severity of peak-dose dyskinesia / dyskinesia: decreased
5-HT2A receptors
  selectivity for 5-HT2A receptors: selective compound for 5-HT2A receptors

## CN[C@@H](C)Cc1ccc2c(c1)OCO2 [S-MDMA, (S)-1-(benzo[d][1,3]dioxol-5-yl)-N-methylpropan-2-amine]
DAT
  affinity for DAT: moderate affinity
SERT
  affinity for SERT: high affinity
[2]
  severity of peak-dose dyskinesia / dyskinesia: exacerbated
  total duration of ON-time: extended

## CNC(C)Cc1ccc2c(c1)OCO2 (racemic) [racemic MDMA, 3,4-Methylenedioxymethamphetamine, reference compound]
[2]
  severity of peak-dose dyskinesia / dyskinesia: reducing dyskinesia
  total duration of ON-time: extending ON-time
